Test results published in US20100160391A1, “Substituted Aminopyridines as Fluorescent Reporters for Amide Hydrolases” (priority 2006, published 2010).
Marks after values point to notes of the source that are not given here.

Legend:
[1] = Dependence of relative fluorescent intensity on pH values; assay type: physicochemical; conditions: 25 μM, pH 8, excitation 302 nm
Experimental: The dependence of relative fluorescent intensity on pH values. 5-amino-2-methoxypyridine (6) was used to determine whether protonization/de-protonization affects the relative fluorescent intensities of the reporters. A stock solution of (6) in ethanol (5 μl, 5 mM) was added to 995 μl 0.1 M sodium phosphate buffer (from pH 6.0 to pH 8.0) or 0.1 M Tris/HCl buffer (pH 9.0) in a quartz cuvette (final substrate concentration 25 μM). Relative fluorescent unit/intensity (RFU) for emission spectra was recorded by a 2 nm interval at room temperature using a fixed excitation wavelength (λ=302 nm). The RFU of each pH value was an average of triplicates and the standard deviation for each point was less than 1%. Similarly, the RFU of the excitation spectrum was recorded by a 2 nm interval at room temperature using a fixed emission wavelength (λ=396 nm) in 0.1 M phosphate buffer (pH 8.0).

[2] = target: T1, microsomal fatty acid amide hydrolase (FAAH) (Homo sapiens, UniProt O00519); assay: Lowest detection limits of microsomal FAAH toward colorimetric and fluorescent substrates; assay type: biochemical
T1 construct: made in house; host or cells: Trichoplusia ni High Five cells infected with recombinant baculovirus Ac-hFAAH; microsomal fraction
T1 sequence (O00519 1-579): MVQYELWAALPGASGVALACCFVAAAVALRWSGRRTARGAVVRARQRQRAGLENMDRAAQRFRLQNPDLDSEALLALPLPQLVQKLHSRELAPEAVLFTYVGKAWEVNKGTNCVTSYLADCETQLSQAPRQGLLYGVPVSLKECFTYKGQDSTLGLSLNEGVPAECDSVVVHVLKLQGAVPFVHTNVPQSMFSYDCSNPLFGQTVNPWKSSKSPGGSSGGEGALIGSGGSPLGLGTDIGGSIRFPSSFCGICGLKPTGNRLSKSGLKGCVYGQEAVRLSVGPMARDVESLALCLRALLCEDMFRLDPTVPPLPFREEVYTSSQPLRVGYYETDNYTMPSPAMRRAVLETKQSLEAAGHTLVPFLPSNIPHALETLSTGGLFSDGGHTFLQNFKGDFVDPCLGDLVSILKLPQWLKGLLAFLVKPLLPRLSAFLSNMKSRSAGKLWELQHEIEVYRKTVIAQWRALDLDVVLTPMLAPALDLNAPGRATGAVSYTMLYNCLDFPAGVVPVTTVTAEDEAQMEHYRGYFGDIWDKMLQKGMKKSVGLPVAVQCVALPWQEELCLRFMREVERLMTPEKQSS
Experimental: Preparation of recombinant human FAAH. Transgenic expression of the human FAAH in a baculovirus system was performed by following the method described in Nishi et al., Arch. Biochem. Biophys., 445:115-123 (2006). The cDNA encoding human FAAH (GenBank Accession No. NM_001441) was amplified by PCR using a human liver cDNA library (Invitrogen; Carlsbad, Calif.) as a template. The primer pair was 5′-[…]-3′ and 5′-[…]-3′. BglII and EcoRI endonuclease sites (underlined) were incorporated just upstream of the start codon and downstream of the stop codon of the coding sequence of FAAH, respectively. The PCR products were cloned into a pCR2.1 vector (Invitrogen) and the nucleotide sequence was verified by DNA sequencing. The cDNA fragments were then excised and directionally ligated to the BglII and EcoRI sites of the baculovirus transfer vector pAcUW21 (Lopez-Ferber et al., Baculovirus transfer vectors, in “Baculovirus Expression Protocols,” Richardson (Ed.), pp 25-63, Humana Press, Totowa, N.J., 1995). Recombinant baculoviruses harboring the human FAAH gene, Ac-hFAAH, were generated by co-transfection of Spodoptera frugiperda-derived Sf21 cells with the recombinant transfer vector plasmid and Bsu36I-cleaved BacPAK6 viral DNA (Clontech Laboratories; Mountain View, Calif.) as described in O'Reilly et al., Baculovirus Expression Vectors: A Laboratory Manual, Oxford University Press, New York, 1992. Trichoplusia ni-derived High Five cells (1×10^6 cells/ml) were inoculated with a high titer of Ac-hFAAH. At 72 hours post-infection, the infected cells were harvested by centrifugation at 2,000×g for 20 min at 4° C. and suspended in 50 mM Tris-HCl (pH 8.0) containing 150 mM NaCl, 1 mM EDTA, 1 μM pepstatin, 100 μM leupeptin, and 0.1 mg/ml aprotinin. The cell suspension was then homogenized using a Polytron homogenizer and centrifuged at 10,000×g for 20 min at 4° C. The microsomal fraction was collected by ultracentrifugation of the supernatant at 100,000×g for 60 min at 4° C. The pellet was resuspended in 20 mM Tris-HCl (pH 8.0) containing 10% (w/v) glycerol and 1% (w/v) Triton-X 100 and stored at −80° C. until use.
Comparison of the lowest detection limits of protein concentration of FAAH toward colorimetric and fluorescent substrates. In general, all assays were performed in 96-well styrene flat-bottom microtiter plates with a Spectra Max M2 spectrophotometer at 37° C. for […]. The total volume of each well was 201 μl consisting of 0.1 M sodium phosphate buffer (pH 8.0) (190 μl) containing 1% glycerol and 0.1% Triton-X 100, stock or diluted protein solution (10 μl), and the substrate solution (1 μl) in ethanol (final concentration 200 μM for 10, 11, 13 or 14) or in DMSO (final concentration 25 μM for 12, 15, or 16; 50 μM for 17). The lowest detection limits of microsomal fatty acid amide hydrolase (FAAH) by substrates were determined by the fact that the signal at 10 min after kinetic measurements are equal to or over three times the noise or basal line at 0 min. Colorimetric substrate (16) assays were performed in clear 96-well microtititer plates using an absorbance wavelength at 382 nm. The fluorescent substrates containing 5-amino-2-methoxypyridine (e.g., 10, 13) were measured at an excitation wavelength (302 nm), emission wavelength (396 nm), and auto cutoff wavelength (325 nm). Similarly, the fluorescent substrates containing 5-amino-2-methoxy-6-methylpyridine (e.g., 11, 14, and 17) were measured at an excitation wavelength (304 nm), emission wavelength (392 nm), and an auto cutoff wavelength of 325 nm. In addition, an excitation wavelength (366 nm), emission wavelength (496 nm), and auto cutoff wavelength (495 nm) were used for the substrates (e.g., 12 and 15) containing 7-amino-4-trifluoromethyl coumarin.

CCCCCCCC(=O)Nc1ccc(OC)nc1 [Compound 13, N-(6-methoxypyridin-3-yl) octanamide]
relative fluorescent intensity of substrate emission at the maximal excitation wavelength of (6) [1]: less than 200 RFU | base line, Average ([2]; 0 min, protein 0.11 (13), 0.67 (14), 100 (15), 0.5 (17) μg/well, 200 μM (13),(14), 25 μM (15), 50 μM (17)): 302 RFU | signal, Average ([2]; 10 min, protein 0.11 (13), 0.67 (14), 100 (15), 0.5 (17) μg/well, 200 μM (13),(14), 25 μM (15), 50 μM (17)): 1091* RFU | difference between (13) and (17) in limit of protein detection ([2]; Table 2): 5 times | Protein, lowest detection limit of microsomal FAAH (signal at 10 min ≥ three times base line) ([2]; pH 8.0, 37° C., 200 μM (13), (14), 50 μM (17)): 0.11 μg/200 μ′ | lowest detection limit of protein ([2]; signal at 10 min equal to three times base line): 0.55 μg protein/ml
